# Data reported in article PMC9323266, “Competitive Metabolism of Polycyclic Aromatic Hydrocarbons (PAHs): An Assessment Using In Vitro Metabolism and Physiologically Based Pharmacokinetic (PBPK) Modeling” (International Journal of Environmental Research and Public …, 2022).
# Read-outs that look alike come from different tables or passages of the source.
# Experiments:
# [1] = cited from earlier work; for Carcinogenic (classifying agencies): classified as Suspected, Possible, Probable, or Confirmed carcinogen in animal models or humans by EPA, IARC or ACGIH
# [2] = tested on: human hepatic microsomes; test: In vitro metabolism (substrate disappearance) in pooled human liver microsomes; type: in vitro ADME; conditions: human hepatic microsomes
# Description: (§1) Pooled human liver microsome samples were obtained from Sekisui Xenotech, LLC (Kansas City, KS, USA). Pooled samples contained contributions from 200 individuals having equal male:female ratio and predominantly from humans between 19 and 78 years of age (3 individuals 10–18 years old).
# (§2) Briefly, within 500 µL total volume, reactions consisted of MgCl2 (3 mM), microsomes (2.0 mg/mL), 0.1 M phosphate buffer (pH 7.4), and excess NADPH (1.5 mM). Control samples using inactivated microsomes absent of NADPH were also included. Microsomes were preactivated via 37 °C incubation on a thermal shaker for 5 min. […] Samples were incubated at 37 °C for 0–30 min or 0–60 min, respectively. Reactions were quenched by adding 500 µL 0.9 M H2SO4, and samples were immediately placed on ice until extraction. A standard curve was prepared (0.015 µM–25.0 µM) in inactivated microsomes. An internal standard was added to each quenched sample (DBC for BaP kinetics reactions and BaP for DBC kinetics reactions). Experiments were performed in triplicate.
# (§3) Analytes were extracted from samples with liquid–liquid extraction and measured using high-performance liquid chromatography (HPLC). First, BaP, DBC, or retene was added as an internal standard depending on incubations conditions being tested. Samples were extracted using three 500 µL volumes of ethyl acetate. Extracts were dried under a gentle stream of nitrogen and resolubilized in 500 µL methanol. Analytes were quantified by reverse phase HPLC using an Agilent 1260 Infinity HPLC system equipped with an Agilent G4290B variable wavelength detector and an Agilent G1321B SPECTRA fluorescence detector (Santa Clara, CA, USA). Sample (10 µL) was injected into an Ascentis 25 cm × 4.6 mm, 5 µm C18 column (Sigma-Aldrich, St. Louis, MO, USA). A gradient of water and acetonitrile from 55:45 to 0:100 was employed from 0 to 10 min and then was held at 100% acetonitrile until 22 min at a flow rate of 0.95 mL/min. […] Excitation and emission wavelengths were 230 nm and 430 nm, respectively. […] Quantification was accomplished using a linear regression fit to an external calibration curve prepared in tandem with samples.
# (§4) As with previous in vitro PAH metabolism studies conducted in our lab, metabolism rates were calculated based on substrate disappearance. […] Confidence intervals of metabolism rates were calculated using a nonparametric bootstrap, where metabolism rates were resampled with replacement at each concentration, and the regression was repeated on the resampled dataset (n = 1000).
# (§5) These two models include a Michaelis–Menten clearance equation for non-saturable high-capacity/low-affinity enzymes (Equation (2)) and a double Michaelis–Menten equation for saturable high-capacity/low-affinity enzymes (Equation (3)). Models were optimized using a maximum likelihood objective. The Bayesian information criterion (BIC) was used to judge the best-fit model for evaluating metabolism. For Michaelis–Menten kinetics, intrinsic clearance values (Clint) of the first order phase were estimated by dividing the Vmax by the respective Km. Fit parameter confidence intervals were calculated using a parametric bootstrap (n = 1000), where each best fit model was re-optimized to sampled metabolic rates assuming a normal distribution at each […]:(1) dS/dt=Vmax×S/Km+S (2) dS/dt=Vmax1×S/Km1+S+Clint2×S (3) dS/dt=Vmax1×S/Km1+S+Vmax2×S/Km2+S
# [3] = parameters: method as in PMID 34933053; conditions: cited from earlier work
# [4] = tested on: benzo[a]pyrene (BaP) metabolism in human hepatic microsomes; test: Competitive inhibition of BaP metabolism in human hepatic microsomes; type: in vitro ADME
# Description: (§6) Competitive inhibition of PAH metabolism was measured using conditions described above. […] Each experimental condition (e.g., substrate, concentration, time point, etc.) was conducted in triplicate.
# (§7) Analytes were extracted from samples with liquid–liquid extraction and measured using high-performance liquid chromatography (HPLC). First, BaP, DBC, or retene was added as an internal standard depending on incubations conditions being tested. Samples were extracted using three 500 µL volumes of ethyl acetate. Extracts were dried under a gentle stream of nitrogen and resolubilized in 500 µL methanol. Analytes were quantified by reverse phase HPLC using an Agilent 1260 Infinity HPLC system equipped with an Agilent G4290B variable wavelength detector and an Agilent G1321B SPECTRA fluorescence detector (Santa Clara, CA, USA). […] Quantification was accomplished using a linear regression fit to an external calibration curve prepared in tandem with samples.
# as §4, with “1000). […]” for “1000).”
# [5] = In vitro metabolism (substrate disappearance) in pooled human liver microsomes; type: in vitro ADME; conditions: both sexes; for microsomal CLint: human, microsomes, pH 7.4, human hepatic microsomes
# Description: as §1, §2, §3, §4, §5
# [6] = tested on: CYP3A4; conditions: Supersomes expressing human CYPs; cited from earlier work
# [7] = molecular target: dibenzo[def,p]chrysene (DBC) metabolism in human hepatic microsomes; test: Competitive inhibition of DBC metabolism in human hepatic microsomes; type: in vitro ADME; conditions: substrate DBC 0.17 µM initial, human hepatic microsomes, apparent Ki, Equation (4); read-out: Inhibition constant (Ki) of competitive inhibitor to DBC metabolism
# Description: as §6, §7
# as §4, with “1000). […]” for “1000).”
# [8] = tested on: DBC metabolism in human hepatic microsomes; test: as above; type: in vitro ADME; conditions: both sexes, human, pH 7.4
# Description: as §6, §7
# as §4, with “1000). […]” for “1000).”
# [9] = tested on: CYP1A1 and CYP2C19; conditions: Supersomes expressing human CYPs; cited from earlier work
# [10] = Michaelis-Menten clearance model fit, high-affinity/low-capacity enzyme
structure (smiles),measurement,setting,value
c1ccc2cc3c(ccc4ccccc43)cc2c1 [benzo(a)anthracene],Carcinogenic (classifying agencies),[1],"EPA, IARC, ACGIH"
"c1ccc2c(c1)cc1ccc3cccc4c5ccccc5c2c1c34 [DBC, dibenzo[def,p]chrysene]","Rates of metabolism, times slower than rates of BaP metabolism",[2],3–5 times
same,Vmax1,[2]; [10],0.0009 nmol/min/mg Micro
same,Km,"[2]; Michaelis-Menten clearance model fit, high-affinity/low-capacity enzyme, read-out: Km 1",0.06 µM
same,Clint 1,"[2]; first order phase, Vmax divided by Km",0.015 mL/min
same,Clint 2,[2]; non-saturable low-affinity/high-capacity enzyme,0.0017 mL/min
same,Relative Potency Factor,[1]; cancer potency relative to BaP index compound,30
same,log Kow,[3],7.71
same,Inhibition of the rate of BaP metabolism,"[4]; inhibitor ≥1 µM, 0.14 µM BaP initial substrate concentration",≥ 48%
same,Ki,"[4]; read-out: Inhibition constant (Ki) of competitive inhibitor to BaP metabolism, substrate BaP 0.14-0.18 µM initial, human hepatic microsomes, apparent Ki, Equation (4)",440 nM
"c1ccc2c(c1)cc1ccc3cccc4ccc2c1c34 [BaP, benzo[a]pyrene]",microsomal CLint,"[5]; first order phase, Vmax divided by Km, read-out: Clint 1",72 µL/min/mg
same,microsomal CLint,"[5]; non-saturable low-affinity/high-capacity enzyme, read-out: Clint 2",1.2 µL/min/mg
same,Km,"[5]; pH 7.4, human hepatic microsomes, Michaelis-Menten clearance model fit, high-affinity/low-capacity enzyme, read-out: Km 1",0.088 µM
same,Intrinsic clearance compared to that of DBC,[2],nearly five-fold faster
same,Vmax1,[2]; [10],0.0063 nmol/min/mg Micro
same,Share of 3-hydroxy-BaP produced by CYP3A4,[6],53%
same,log Kow,[3],6.13
same,Ki,[7],61 nM
same,inhibition at 1 µM,[8],62%
same,"Share of BaP-7,8-diol produced by CYP1A1 and CYP2C19",[9],96%
c1ccc2ccccc2c1 [naphthalene],Carcinogenic (classifying agencies),[1],"EPA, IARC, ACGIH"
c1ccc2c(c1)ccc1c3ccccc3ccc21 [chrysene],Carcinogenic (classifying agencies),[1],"EPA, ACGIH"
